Laboratory results as given in patent US10058550B2, “Methods of treating heart failure” (priority 2015, dated 2018).

The compounds below were run against human APJ receptor (Homo sapiens (Human), UniProt P35414) (assay: biochemical). Details: read-out: Activity hAPJ SPA EC50 IP.
human APJ receptor, sequence (P35414 whole entry): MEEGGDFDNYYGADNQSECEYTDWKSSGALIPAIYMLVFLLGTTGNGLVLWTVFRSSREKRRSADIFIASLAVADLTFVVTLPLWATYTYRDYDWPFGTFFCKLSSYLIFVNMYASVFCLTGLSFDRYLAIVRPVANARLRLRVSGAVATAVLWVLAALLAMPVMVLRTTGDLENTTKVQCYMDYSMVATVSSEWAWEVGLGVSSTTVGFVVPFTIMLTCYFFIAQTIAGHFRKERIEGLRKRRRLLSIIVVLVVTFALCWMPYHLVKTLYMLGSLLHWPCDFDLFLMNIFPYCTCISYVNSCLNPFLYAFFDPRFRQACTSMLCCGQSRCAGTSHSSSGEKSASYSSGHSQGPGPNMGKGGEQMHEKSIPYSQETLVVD
Type: biochemical
Method: The human APJ receptor was cloned by polymerase chain reaction and the gene encoding the receptor was subcloned in pFLAG-CMV™-3 expression vector (Sigma, Saint Louis, Mo. USA) in-house at Amgen. A GTPγS binding assay was performed on membranes prepared from CHO cells stably expressing human APJ receptor. The optimum experimental conditions for the concentrations of GDP, MgCl2, and NaCl in the assay buffer were initially determined. The assay was performed in assay buffer [20 mM HEPES, pH 7.5, 5 mM MgCl2, and 0.1% (w/v) BSA with 200 mM NaCl, 3 μM GDP] and membranes expressing human APJ receptor/well along with WGA PS beads. The reaction was initiated by addition of 0.2 nM [^35S]GTPγS (Perkin Elmer Life and Analytical Sciences, Waltham USA) in the absence or presence of various ligands and incubated at RT for 90 min. […] All the results presented are means of several independent experiments and analyzed by non-linear regression methods using commercially available program Prism (GraphPad, San Diego, Calif.) to obtain EC50 detailed in Table 58.
CCO[C@@H](c1ncc(C)cn1)[C@@H](C)S(=O)(=O)Nc1nnc(-c2cccnc2)n1-c1c(OC)cccc1OC (single isomer, unassigned) [Example 108.0] was tested, and the EC50 was 0.15 µM. With COc1cccc(OC)c1-n1c(NS(=O)(=O)[C@@H](C)Cc2ncc(F)cn2)nnc1-c1cncc(C)c1 (single isomer, unassigned) [Example 208.0] the EC50 was 0.001 µM. In the case of COc1cccc(OC)c1-n1c(NS(=O)(=O)[C@@H](C)Cc2ncc(F)cn2)nnc1-c1cncc(C)c1 (single isomer, unassigned) [Example 209.0], the EC50 is reported as 0.0049 µM. In the case of COc1cccc(OC)c1-n1c(NS(=O)(=O)[C@@H](C)Cc2ncc(F)cn2)nnc1-c1cnccc1C (single isomer, unassigned) [Example 217.0], the EC50 is reported as 0.18 µM. Compound COc1cccc(OC)c1-n1c(NS(=O)(=O)[C@@H](C)Cc2ncc(F)cn2)nnc1-c1cnccc1C (single isomer, unassigned) [Example 218.0] has an EC50 of 0.3 µM. With COc1cccc(OC)c1-n1c(NS(=O)(=O)[C@@H](C)Cc2ncc(F)cn2)nnc1-c1cncc(Cl)c1 (single isomer, unassigned) [Example 220.0] the EC50 was 0.0071 µM. COc1cccc(OC)c1-n1c(NS(=O)(=O)[C@@H](C)Cc2ncc(F)cn2)nnc1-c1cncc(Cl)c1 (single isomer, unassigned) [Example 221.0] showed an EC50 of 0.035 µM. Compound COc1cccc(OC)c1-n1c(NS(=O)(=O)[C@@H](C)[C@H](C)c2ncc(F)cn2)nnc1-c1cncc(C)c1 (single isomer, unassigned) [Example 234.0] has an EC50 of 0.016 µM. Work on COc1cccc(OC)c1-n1c(NS(=O)(=O)[C@@H](C)[C@H](C)c2ncc(F)cn2)nnc1-c1cncc(C)c1 (single isomer, unassigned) [Example 235.0] yielded an EC50 of 0.00028 µM. COc1cccc(OC)c1-n1c(NS(=O)(=O)[C@@H](C)[C@H](C)c2ncc(F)cn2)nnc1-c1cncc(C)c1 (single isomer, unassigned) [Example 236.0] showed an EC50 of 0.1 µM. COc1cccc(OC)c1-n1c(NS(=O)(=O)[C@@H](C)[C@H](C)c2ncc(F)cn2)nnc1-c1cncc(C)c1 (single isomer, unassigned) [Example 237.0] was tested, and the EC50 was 0.014 µM. COc1cccc(OC)c1-n1c(NS(=O)(=O)[C@@H](C)[C@H](O)c2ccc(C#N)cc2)nnc1-c1cncc(C)c1 (single isomer, unassigned) [Example 248.0] showed an EC50 of 0.06 µM. COc1cccc(-c2nnc(NS(=O)(=O)C[C@H](O)c3ccc(F)cc3S(C)(=O)=O)n2-c2c(OC)cccc2OC)n1 (single isomer, unassigned) [Example 268.0, (R)—N-(4-(2,6-dimethoxyphenyl)-5-(6-methoxypyridin-2-yl)-4H-1,2,4-triazol-3-yl)-2-(4-fluoro-2-(methylsulfonyl)phenyl)-2-hydroxyethanesulfonamide or (S)—N-(4-(2,6-dimethoxyphenyl)-5-(6-methoxypyridin-2-yl)-4H-1,2,4-triazol-3-yl)-2-(4-fluoro-2-(methylsulfonyl)phenyl)-2-hydroxyethanesulfonamide] gave an EC50 of 0.00017 µM. With COc1cccc(-c2nnc(NS(=O)(=O)[C@@H](C)[C@H](O)c3ccc(F)cc3F)n2-c2c(OC)cccc2OC)n1 (single isomer, unassigned) [Example 279.0] the EC50 was 0.028 µM. With COc1cccc(-c2nnc(NS(=O)(=O)[C@@H](C)[C@H](O)c3ccc(F)cc3F)n2-c2c(OC)cccc2OC)n1 (single isomer, unassigned) [Example 280.0] the EC50 was 0.00027 µM. Work on COc1cccc(-c2nnc(NS(=O)(=O)[C@@H](C)[C@H](O)c3ccc(F)cc3F)n2-c2c(OC)cccc2OC)n1 (single isomer, unassigned) [Example 281.0] yielded an EC50 of 0.043 µM. COc1cccc(-c2nnc(NS(=O)(=O)[C@@H](C)[C@H](O)c3ccc(F)cc3F)n2-c2c(OC)cccc2OC)n1 (single isomer, unassigned) [Example 282.0] was tested, and the EC50 was 0.00071 µM. COc1cccc(-c2nnc(NS(=O)(=O)[C@@H](C)[C@H](O)c3ccc(F)cc3)n2-c2c(OC)cccc2OC)n1 (single isomer, unassigned) [Example 284.0] was tested, and the EC50 was 0.013 µM. COc1cccc(-c2nnc(NS(=O)(=O)[C@@H](C)[C@H](O)c3ccc(F)cc3)n2-c2c(OC)cccc2OC)n1 (single isomer, unassigned) [Example 285.0] was tested, and the EC50 was 0.00057 µM. COc1cccc(-c2nnc(NS(=O)(=O)[C@@H](C)[C@H](O)c3ccc(F)cc3)n2-c2c(OC)cccc2OC)n1 (single isomer, unassigned) [Example 286.0] was tested, and the EC50 was 0.00068 µM. COc1cccc(-c2nnc(NS(=O)(=O)[C@@H](C)[C@H](O)c3ccc(F)cc3)n2-c2c(OC)cccc2OC)n1 (single isomer, unassigned) [Example 287.0] was tested, and the EC50 was 0.014 µM. COc1cccc(-c2nnc(NS(=O)(=O)[C@@H](C)[C@H](O)c3ccc(F)cc3S(C)(=O)=O)n2-c2c(OC)cccc2OC)n1 (single isomer, unassigned) [Example 289.0, (1R,2S)—N-(4-(2,6-dimethoxyphenyl)-5-(6-methoxypyridin-2-yl)-4H-1,2,4-triazol-3-yl)-1-(4-fluoro-2-(methylsulfonyl)phenyl)-1-hydroxypropane-2-sulfonamide or (1S,2R)—N-(4-(2,6-dimethoxyphenyl)-5-(6-methoxypyridin-2-yl)-4H-1,2,4-triazol-3-yl)-1-(4-fluoro-2-(methylsulfonyl)phenyl)-1-hydroxypropane-2-sulfonamide] gave an EC50 of 0.011 µM. Work on COc1cccc(OC)c1-n1c(NS(=O)(=O)[C@@H](C)[C@H](O)c2nc(C)c(C)s2)nnc1-c1cncc(C)c1 (single isomer, unassigned) [Example 291.0] yielded an EC50 of 0.0018 µM. COc1cccc(OC)c1-n1c(NS(=O)(=O)[C@@H](C)[C@H](O)c2nc(C)c(C)s2)nnc1-c1cncc(C)c1 (single isomer, unassigned) [Example 292.0] showed an EC50 of 0.0009 µM. For COc1cccc(OC)c1-n1c(NS(=O)(=O)[C@@H](C)[C@H](O)c2nc(C)c(C)s2)nnc1-c1cncc(C)c1 (single isomer, unassigned) [Example 293.0], the EC50 was 0.013 µM. Compound COc1cccc(OC)c1-n1c(NS(=O)(=O)[C@@H](C)[C@H](O)c2nc(C)c(C)s2)nnc1-c1cncc(C)c1 (single isomer, unassigned) [Example 294.0] has an EC50 of 0.011 µM. COc1cccc(OC)c1-n1c(NS(=O)(=O)[C@@H](C)[C@H](O)c2nc(C)c(C)s2)nnc1-c1cncc(C)c1 (single isomer, unassigned) [Example 295.0] was tested, and the EC50 was 0.098 µM. COc1cccc(OC)c1-n1c(NS(=O)(=O)[C@@H](C)[C@H](O)c2nc(C)c(C)s2)nnc1-c1cncc(C)c1 (single isomer, unassigned) [Example 296.0] was tested, and the EC50 was 0.0047 µM. COc1cnc([C@@H](O)[C@H](C)S(=O)(=O)Nc2nnc(-c3cncc(C)c3)n2-c2c(OC)cccc2OC)cn1 (single isomer, unassigned) [Example 305.0] was tested, and the EC50 was 0.00039 µM. For COc1cnc([C@@H](O)[C@H](C)S(=O)(=O)Nc2nnc(-c3cncc(C)c3)n2-c2c(OC)cccc2OC)cn1 (single isomer, unassigned) [Example 306.0], the EC50 was 0.02 µM. COc1cnc([C@@H](O)[C@H](C)S(=O)(=O)Nc2nnc(-c3cncc(C)c3)n2-c2c(OC)cccc2OC)cn1 (single isomer, unassigned) [Example 308.0] was tested, and the EC50 was 0.076 µM. COc1cnc([C@@H](O)[C@H](C)S(=O)(=O)Nc2nnc(-c3cncc(C)c3)n2-c2c(OC)cccc2OC)cn1 (single isomer, unassigned) [Example 309.0] gave an EC50 of 0.0095 µM. With COc1cnc([C@@H](OC)[C@H](C)S(=O)(=O)Nc2nnc(-c3cncc(C)c3)n2-c2c(OC)cccc2OC)cn1 (single isomer, unassigned) [Example 311.0] the EC50 was 0.00026 µM. COc1cnc([C@@H](OC)[C@H](C)S(=O)(=O)Nc2nnc(-c3cncc(C)c3)n2-c2c(OC)cccc2OC)cn1 (single isomer, unassigned) [Example 312.0] gave an EC50 of 0.027 µM. In the case of COc1cccc(-c2nnc(NS(=O)(=O)C[C@H](O)c3ccc(F)cn3)n2-c2c(OC)cccc2OC)n1 (single isomer, unassigned) [Example 316.0, (2R)—N-(4-(2,6-dimethoxyphenyl)-5-(6-methoxy-2-pyridinyl)-4H-1,2,4-triazol-3-yl)-2-(5-fluoro-2-pyridinyl)-2-hydroxyethanesulfonamide or (2S)—N-(4-(2,6-dimethoxyphenyl)-5-(6-methoxy-2-pyridinyl)-4H-1,2,4-triazol-3-yl)-2-(5-fluoro-2-pyridinyl)-2-hydroxyethanesulfonamide], the EC50 is reported as 0.0005 µM. With COc1cccc(-c2nnc(NS(=O)(=O)C[C@H](O)c3ccc(F)cn3)n2-c2c(OC)cccc2OC)n1 (single isomer, unassigned) [Example 317.0, (2R)—N-(4-(2,6-dimethoxyphenyl)-5-(6-methoxy-2-pyridinyl)-4H-1,2,4-triazol-3-yl)-2-(5-fluoro-2-pyridinyl)-2-hydroxyethanesulfonamide or (2S)—N-(4-(2,6-dimethoxyphenyl)-5-(6-methoxy-2-pyridinyl)-4H-1,2,4-triazol-3-yl)-2-(5-fluoro-2-pyridinyl)-2-hydroxyethanesulfonamide] the EC50 was 0.00053 µM.
